Source: patent US20210085739A1, “ANTIPLATELET ACTIVITY OF THE ACANTHUS MOLLIS SEEDS' TOTAL EXTRACT AND ITS CONSTITUENTS” (priority 2017, published 2021)

Columns and labels:
[1] = system: platelet aggregation induced by TRAP-6; assay: Light Transmittance Aggregometry in human PRP, agonist TRAP-6 (10 μM); assay type: cell-based; conditions: each agent 1 mg/mL, combinations at mass ratios 1:1 or 1:1:1
Method: (§1) The effect of methanol extract on platelet aggregation in vitro was extensively studied in human Platelet Rich Plasma (PRP) from healthy volunteers, using Light Transmittance Aggregometry (LTA), as we previously described (Mitsios J V, et al. Eur J Biochem. 2004; 271:855-862). PRP was activated by arachidonic acid (AA; 0.5 mM), Thrombin Receptor Activating Peptide-6 (TRAP-6; 10 μM) and ADP (10 μM), as agonists. Samples were prepared by evaporating the methanol under nitrogen and then by dissolving the residue in DMSO. The maximal aggregation, achieved within 4 min after the addition of each agonist, was determined and expressed as a percentage of 100% light transmission calibrated for each specimen (% maximal aggregation). The inhibitory efficacy of the seeds extract expressed as IC50 value (half maximal inhibitory concentration). All values derived from at least three independent experiments performed for each platelet agonist, using 3 different methanol extract preparations (prepared as described above) and are expressed as the mean±standard deviation (S.D.). The final concentration of DMSO in each assay was 0.01% by volume.
(§2) Each fraction was dissolved in DMSO and used at a final concentration of 1 mg/mL. Standards of Verbascoside and Isoverbascoside were also dissolved in DMSO and used at a final concentration of 1 mg/mL. […] This concentration was not much lower to that of the total extract 0.25 mg/mL (as it would expected, since we used a purified fraction from the total extract that expresses the inhibitory activity towards AA-induced platelet aggregation). Therefore, we used a combination of fraction 1 with fraction 2 or 3 (at mass ratios of 1:1) or a combination of the 3 fractions (at mass ratios of 1:1:1).
Next we evaluated the biological effect of the three fractions towards platelet aggregation induced by TRAP-6.

[2] = system: platelet aggregation induced by AA; assay: Light Transmittance Aggregometry in human PRP, agonist arachidonic acid (AA; 0.5 mM); assay type: cell-based; conditions: for inhibition of AA-induced platelet aggregation (FIG. 5A, 6A): each agent 1 mg/mL, combinations at mass ratios 1:1 or 1:1:1
Method: as §1, §2

## O=C1C(O[C@@H]2O[C@H](CO)[C@@H](O)[C@H](O)[C@H]2O)Oc2ccccc2N1O (stereo partly drawn) [fraction 1, 2-O-β-D-glucopyranosyl-4-hydroxy-1,4-benzoxazin-3-one]
[1]
  inhibition of TRAP-6-induced platelet aggregation (FIG. 5B, 6B): no inhibitory activity
[2]
  threshold concentration (the lower concentration that induces the maximum inhibitory effect), AA-induced platelet aggregation: 0.2 mg/mL
  inhibition of AA-induced platelet aggregation (FIG. 5A, 6A): inhibited platelet aggregation

## C[C@@H]1O[C@@H](O[C@@H]2[C@@H](O)[C@H](OCCc3ccc(O)c(O)c3)O[C@H](COC(=O)/C=C/c3ccc(O)c(O)c3)[C@H]2O)[C@H](O)[C@H](O)[C@H]1O [Isoverbascoside]
[1]
  inhibition of TRAP-6-induced platelet aggregation (FIG. 5B, 6B): inhibited platelet aggregation
[2]
  inhibition of AA-induced platelet aggregation (FIG. 5A, 6A): do not inhibit platelet aggregation

## C[C@@H]1O[C@@H](O[C@@H]2[C@@H](O)[C@H](OCCc3ccc(O)c(O)c3)O[C@H](CO)[C@H]2OC(=O)/C=C/c2ccc(O)c(O)c2)[C@H](O)[C@H](O)[C@H]1O [Verbascoside]
[1]
  inhibition of TRAP-6-induced platelet aggregation (FIG. 5B, 6B): only Isoverbascoside inhibited platelet aggregation
[2]
  inhibition of AA-induced platelet aggregation (FIG. 5A, 6A): do not inhibit platelet aggregation
